One test relates to T1, AcUGT84A56.
T1 construct: gene UGT84A56; full-length, MBP or His fusion (pMAL-c2x or pET28a), E. coli, purified
The experiment in a line: HPLC glucosyltransferase kinetics. The class given is biochemical, Aesculus chinensis. As to conditions: 1 mM UDP-glucose, Tris-HCl pH 7.0, 37 °C, 0-400 μM acceptor.

Another test has as its system T2, AcUGT92G7.
T2 construct: gene UGT92G7; full-length, MBP or His fusion (pMAL-c2x or pET28a), E. coli, purified
The experiment in a line: HPLC glucosyltransferase kinetics. Type of test: biochemical, Aesculus chinensis. As to conditions: 1 mM UDP-glucose, Tris-HCl pH 7.0, 37 °C, 0-400 μM acceptor.

Molecules are shown by their SMILES.

The record followed here is article PMC10576086, “Characterization of the horse chestnut genome reveals the evolution of aescin and aesculin biosynthesis” (Nature Communications, 2023).

`O=c1ccc2cc(O)c(O)cc2o1` [compound 4, esculetin]: the Km came to 177 µM in the test on AcUGT84A56 and 49 µM with AcUGT92G7.

The term Km denotes the substrate concentration at which the rate is half of its maximum.
